Reference: US7205304B2, “Sulfonyl-Derivatives as novel inhibitors of histone deacetylase” (Janssen Pharmaceutica N.V., priority 2002, dated 2007)
≈ marks a conversion by molar mass, not a printed value. Like-named read-outs stand apart in the source and are kept apart here.

What was measured:
[1] = not given; remark: listed apart in the source
[2] = system: A2780 ovarian carcinoma cells; test: Antiproliferative activity on A2780 cells (MTT); format: cell-based, human; conditions: Homo sapiens, A2780, 96 h, four days of incubation, read-out: Cellular activity pIC50 (converted)
Summary of the method: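 A2780 ovarian carcinoma cells were seeded at 1500 cells/well and exposed to compound for four days, with DMSO ≤0.1%. Viability was measured by MTT (2 h, 37° C) and expressed as a percentage of untreated controls after blank subtraction. Initial single-point testing was at 10^−6 M, then full curves gave pIC50.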

[3] = Kinetic solubility in aqueous media (nephelometry); format: physicochemical; conditions: phosphate citrate buffer, pH 7.4, aqueous buffer, kinetic from dmso stock, phosphate citrate buffer pH 7.4, turbidity of three dilution steps; read-out: Solubility Score
Summary of the method: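 DMSO stock (5 mM) diluted in three consecutive steps into phosphate citrate buffer pH 7.4, in triplicate; turbidity of each dilution read by nephelometry immediately after the last step. Compounds ranked into 3 classes: score 3 if first dilution clear, 2 if first unclear but second clear.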

[4] = biological target: histone deacetylase (HeLa nuclear extracts); test: In vitro assay for inhibition of histone deacetylase; format: biochemical; conditions: [3H]acetylated histone H4 peptide substrate

| Structure (SMILES) | melting point | % metabolism of the compound after 15 min of incubation ([1]; human, 15 min, 5 μM) | IC50 [2] | solubility [3] | Enzyme activity pIC50 [4] | % metabolism of the compound after 15 min of incubation ([1]; 5 μM compound, microsomes 1 mg/ml, NADPH-generating system) |
| --- | --- | --- | --- | --- | --- | --- |
| O=C(NO)c1cnc(N2CCN(S(=O)(=O)c3ccc(-c4ccccc4OCCN4CCCC4)cc3)CC2)nc1 (hydrate or solvate) [Co. No. 125] | 146.9 °C |  |  |  |  |  |
| COc1cc(N)c(Cl)cc1C(=O)NC1CCN(CCCOc2ccc(F)cc2)CC1OC (stereo not shown) [Cisapride] |  | 45% |  |  |  |  |
| CN(C)Cc1sccc1-c1ccc(S(=O)(=O)N2CCN(c3ncc(C(=O)NO)cn3)CC2)cc1 [Co. No. 124] | 192 °C |  |  |  |  |  |
| O=C(NO)c1cnc(N2CCN(S(=O)(=O)c3ccc(-c4cccc(CCN5CCCC5)c4)cc3)CC2)nc1 [Co. No. 127] | 243 °C |  |  |  |  |  |
| CC(=O)Nc1ccc(N2CCN(S(=O)(=O)c3ccc4ccccc4c3)CC2)cc1 [Compound 3] | 200 °C |  | > 10000 nM | < 75.8 µM | <5 |  |
| O=C(NO)Nc1ccc(N2CCN(S(=O)(=O)c3ccc4ccccc4c3)CC2)cc1 [Compound 4] | 210 °C |  | > 10000 nM | 75.8 to 454 µM (≈ 32.3 to 194 µg/mL) | <5 |  |
| Cn1cnc(C(=O)Nc2ccc(N3CCN(S(=O)(=O)c4ccc5ccccc5c4)CC3)cc2)c1 [Compound 5] | 252 °C |  | > 10000 nM |  | <5 |  |
| O=C(Nc1ccc(N2CCN(S(=O)(=O)c3ccc4ccccc4c3)CC2)cc1)/C(Cc1ccccc1)=N/O [Compound 9] | 226 °C |  | 3880 nM |  | <5 |  |
| CC(=O)SCC(=O)c1ccc(N2CCN(S(=O)(=O)c3ccc4ccccc4c3)CC2)cc1 [Compound 10] | 179 °C |  | > 10000 nM | < 75.8 µM | 6.7 |  |
| O=C(NO)c1ccc(N2CCN(S(=O)(=O)c3ccc4ccccc4c3)CC2)cc1C(F)(F)F [Compound 11] | 196 °C |  | 1010 nM |  | <5 |  |
| CCOc1nc(N2CCN(S(=O)(=O)c3ccc4ccccc4c3)CC2)ncc1C(=O)NO [Compound 12] | 197 °C |  | 8200 nM |  | <5 |  |
| Nc1ccccc1NC(=O)c1cnc(N2CCN(S(=O)(=O)c3ccc4ccccc4c3)CC2)nc1 [Compound 13] | 238 °C |  | 442 nM | < 75.8 µM | <5 |  |
| CN(C)C(=O)c1ccc(N2CCN(S(=O)(=O)c3ccc4ccccc4c3)CC2)nn1 [Compound 113] | 200 °C |  | > 10000 nM |  | <5 |  |
| CN(C)c1nc(N2CCN(S(=O)(=O)c3ccc4ccccc4c3)CC2)ncc1C(=O)NO [Compound 115] | 135 °C |  | 2020 nM |  | <5 |  |
| O=C(NO)c1cnc(N2CCN(S(=O)(=O)c3ccc4ccccc4c3)CC2)cn1 [Compound 116] | 249 °C |  | 861 nM | < 75.8 µM | 7.159 |  |
| NC(=O)C1CN(c2ncc(C(=O)NO)cn2)CCN1S(=O)(=O)c1ccc2ccccc2c1 (stereo not shown) [Compound 118] | 210 °C |  | 5300 nM | > 454 µM | 6.741 |  |
| O=C(NO)c1cnc(N2CCN(S(=O)(=O)c3ccc4ccccc4c3)CC2)nc1NO [Compound 119] | 225 °C |  | > 10000 nM |  | 5.215 |  |
| O=C(NO)c1ccc(N2CCN(S(=O)(=O)c3ccc4ccccc4c3)CC2)nn1 [Compound 120] | > 260 °C |  | 1010 nM | < 75.8 µM | 6.491 |  |
| O=C(NO)c1cnc(N2CCN(S(=O)(=O)c3ccc4ccccc4c3)C(CO)C2)nc1 (stereo not shown) [Compound 121] | 220 °C |  | 2770 nM | > 454 µM | 6.833 |  |
| O=C(NO)c1cnc(N2CCN(S(=O)(=O)c3ccc4ccccc4c3)C(C(=O)NO)C2)nc1 (stereo not shown) [Compound 122] | 166 °C |  | > 10000 nM |  | 7.06 |  |
| CN(C)CC1CN(c2ncc(C(=O)NO)cn2)CCN1S(=O)(=O)c1ccc2ccccc2c1 (stereo not shown) [Compound 123] | 114 °C |  | 2580 nM | > 454 µM | 6.787 |  |
| CN(C)Cc1ccccc1-c1ccc(S(=O)(=O)N2CCN(c3ncc(C(=O)NO)cn3)CC2)cc1 [Compound 126] | 190.7 °C |  | 103 nM | < 75.8 µM | 8.456 |  |

| Structure (SMILES) | melting point | % metabolism of the compound after 15 min of incubation ([1]; human, 15 min, 5 μM) | IC50 [2] | solubility [3] | Enzyme activity pIC50 [4] | % metabolism of the compound after 15 min of incubation ([1]; 5 μM compound, microsomes 1 mg/ml, NADPH-generating system) |
| --- | --- | --- | --- | --- | --- | --- |
| O=C(NO)c1cnc(N2CCN(S(=O)(=O)c3ccc(-c4cccc(CCO)c4)cc3)CC2)nc1 [Compound 129] | > 260 °C |  | 206 nM | > 454 µM | 7.107 |  |
| O=C(NO)c1cnc(N2CCN(S(=O)(=O)c3ccc(-c4ccc(CN5CCN(CCO)CC5)cc4)cc3)CC2)nc1 [Compound 166] |  |  | 61.4 nM | < 75.8 µM | 7.969 |  |
| O=C(NO)c1cnc(N2CCN(S(=O)(=O)c3ccc(-c4cccc(CN5CCOCC5)c4)cc3)CC2)nc1 [Compound 167] |  |  | 108 nM | > 454 µM | 7.579 |  |
| CN(C)Cc1cccc(-c2ccc(S(=O)(=O)N3CCN(c4ncc(C(=O)NO)cn4)CC3)cc2)c1 [Compound 168] |  |  | 63.8 nM | > 454 µM | 8.766 |  |
| CN1CCN(Cc2cccc(-c3ccc(S(=O)(=O)N4CCN(c5ncc(C(=O)NO)cn5)CC4)cc3)c2)CC1 [Compound 169] |  |  | 72.4 nM | > 454 µM | 8.338 |  |
| CC(C)N(C)Cc1cccc(-c2ccc(S(=O)(=O)N3CCN(c4ncc(C(=O)NO)cn4)CC3)cc2)c1 [Compound 170] |  |  | 65.3 nM | > 454 µM | 8.227 |  |
| O=C(NO)c1cnc(N2CCN(S(=O)(=O)c3ccc(-c4cccc(CN5CCCC5)c4)cc3)CC2)nc1 [Compound 171] |  |  | 47.1 nM | > 454 µM | 8.45 |  |
| CN(C)CCc1cccc(-c2ccc(S(=O)(=O)N3CCN(c4ncc(C(=O)NO)cn4)CC3)cc2)c1 [Compound 172] |  |  | 64.4 nM | > 454 µM | 8.566 |  |
| CC(C)N(C)CCc1cccc(-c2ccc(S(=O)(=O)N3CCN(c4ncc(C(=O)NO)cn4)CC3)cc2)c1 [Compound 173] |  |  | 70.5 nM | > 454 µM | 8.423 |  |
| CN1CCN(CCc2cccc(-c3ccc(S(=O)(=O)N4CCN(c5ncc(C(=O)NO)cn5)CC4)cc3)c2)CC1 [Compound 174] |  |  | 80.4 nM | > 454 µM | 8.212 |  |
| COc1ccc(-c2ccc(S(=O)(=O)N3CCN(c4ncc(C(=O)NO)cn4)CC3)cc2)cc1 [Compound 175] |  |  | 68.9 nM | < 75.8 µM | 7.691 |  |
| O=C(NO)c1cnc(N2CCN(S(=O)(=O)c3ccc(-c4cc(Cl)cc(Cl)c4)cc3)CC2)nc1 [Compound 176] |  |  | 828 nM | 75.8 to 454 µM (≈ 38.5 to 231 µg/mL) | 6.513 |  |
| O=C(NO)c1cnc(N2CCN(S(=O)(=O)c3ccc(-c4ccc(Cl)c(Cl)c4)cc3)CC2)nc1 [Compound 177] |  |  | 308 nM | < 75.8 µM | 6.428 |  |
| O=C(NO)c1cnc(N2CCN(S(=O)(=O)c3ccc(-c4ccc(F)cc4)cc3)CC2)nc1 [Compound 178] |  |  | 75.5 nM | < 75.8 µM | 7.99 |  |
| Cc1ccc(-c2ccc(S(=O)(=O)N3CCN(c4ncc(C(=O)NO)cn4)CC3)cc2)cc1 [Compound 179] |  |  | 119 nM | 75.8 to 454 µM (≈ 34.4 to 206 µg/mL) | 7.146 |  |
| CN(C)c1ccc2cc(S(=O)(=O)N3CCN(c4ncc(C(=O)NO)cn4)CC3)ccc2c1 [Compound 181] |  |  | 119 nM | > 454 µM | 7.098 |  |
| O=C(NO)c1cnc(N2CCN(S(=O)(=O)c3ccc(-c4ccccn4)s3)CC2)nc1 [Compound 182] |  |  | 87.1 nM | < 75.8 µM | 7.634 |  |
| O=C(NO)c1cnc(N2CCN(S(=O)(=O)c3ccc(S(=O)(=O)c4ccccc4)s3)CC2)nc1 [Compound 183] |  |  | 2320 nM | 75.8 to 454 µM (≈ 38.6 to 232 µg/mL) | 7.631 |  |
| O=C(NO)c1cnc(N2CCN(S(=O)(=O)c3ccc(-c4ccc(Cl)cc4)cc3)CC2)nc1 [Compound 184] |  |  | 62.8 nM | < 75.8 µM | 7.22 |  |
| O=C(NO)c1cnc(N2CCN(S(=O)(=O)c3ccc(-c4ccc(C(F)(F)F)cc4)cc3)CC2)nc1 [Compound 185] |  |  | 160 nM | < 75.8 µM | 6.417 |  |
| CN(c1ccccc1)c1ccc2cc(S(=O)(=O)N3CCN(c4ncc(C(=O)NO)cn4)CC3)ccc2c1 [Compound 186] |  |  | 558 nM | 75.8 to 454 µM (≈ 39.3 to 236 µg/mL) | 6.539 |  |
| CCCO [propanol] |  |  |  |  |  | 25% |
